Experimental data reported in ChEMBL document CHEMBL1141486, “Synthesis and biological evaluation of novel 1,3,5-triazine derivatives as antimicrobial agents” (Bioorg Med Chem Lett, 2008).
Active and inactive are the calls of the source. No cut-off for these calls is given here.

How the values were obtained:
Bacillus subtilis = experiment: Antibacterial activity against Bacillus subtilis […] by microdilution method; format: functional, organism-based
Acinetobacter baumannii = experiment: Antibacterial activity against Acinetobacter baumannii ATCC BAA747 by microdilution method; format: functional, organism-based
Staphylococcus aureus = experiment: Antibacterial activity against multi-drug resistant Staphylococcus aureus ATCC BAA44 by microdilution method; format: functional, organism-based
Escherichia coli = experiment: Antibacterial activity against ampicillin and streptomycin-resistant Escherichia coli D31 by microdilution method; format: functional, organism-based
[1] = Hemolytic activity in red blood cells; format: ADME, cell-based, Erythrocyte; details: read-out: HD50 (the source's name)
[2] = Effect on disruption of membrane integrity using […]-2-oleoyl-sn-glycero-3-[phospho-rac-(1-glycerol)] lipid vesicle at 50 uM by calcein dye leakage assay; format: functional
Bacillus anthracis = experiment: Antibacterial activity against Bacillus anthracis by microdilution method; format: functional, organism-based
[3] = Hemolytic activity in red blood cells at 100 uM; format: ADME, cell-based, Erythrocyte; details: read-out: Activity
[4] = Effect on disruption of membrane integrity using […]-2-oleoyl-sn-glycero-3-[phospho-rac-(1-glycerol)] lipid vesicle at 70 uM by calcein dye leakage assay; format: functional
[5] = Effect on disruption of membrane integrity using […]-2-oleoyl-sn-glycero-3-[phospho-rac-(1-glycerol)] lipid vesicle at 90 uM by calcein dye leakage assay; format: functional

CCCCN(CCCC)CCCNc1nc(NC2CCC2)nc(NC23CC4CC(CC(C4)C2)C3)n1
IC50 (Bacillus subtilis): 7.9 µM

CCN(CC)CCCNc1nc(NCCCc2ccccc2)nc(NC23CC4CC(CC(C4)C2)C3)n1
IC50 (Bacillus subtilis): 3.7 µM

NCCCNc1nc(NC2CCCCCC2)nc(NC23CC4CC(CC(C4)C2)C3)n1
IC50 (Bacillus subtilis): 4.7 µM

CCN(CC)CCCNc1nc(NCCc2ccccc2)nc(NC23CC4CC(CC(C4)C2)C3)n1
IC50 (Acinetobacter baumannii): 22 µM | IC50 (Staphylococcus aureus): 17 µM | IC50 (Escherichia coli): 200 µM | IC50 (Bacillus subtilis): 2.7 µM | HC50 [1]: > 3.5 mM | Activity [2]: 100% | IC50 (Bacillus anthracis): 21 µM

CCN(CC)CCCNc1nc(NCc2ccccc2)nc(NC23CC4CC(CC(C4)C2)C3)n1
IC50 (Bacillus subtilis): 10.6 µM

CCCCN(CCCC)CCCNc1nc(NC23CC4CC(CC(C4)C2)C3)nc(N(CCCC)CCCC)n1
IC50 (Bacillus subtilis): 4.4 µM

CCN(CC)CCCNc1nc(NCCc2ccc(OC)cc2)nc(NC23CC4CC(CC(C4)C2)C3)n1
hemolysis at 100 µM [3]: < 10%

CCCCN(CCCC)CCCNc1nc(NC2CCCCC2)nc(NC23CC4CC(CC(C4)C2)C3)n1
hemolysis at 100 µM [3]: < 10%

C[N+](C)(C)CCNc1nc(NC2CCCCCC2)nc(NC23CC4CC(CC(C4)C2)C3)n1
IC50 (Bacillus subtilis): 5.3 µM

CCCCN(CCCC)CCCNc1nc(NCCCN(CC)CC)nc(NC23CC4CC(CC(C4)C2)C3)n1
hemolysis at 100 µM [3]: < 10%

CC1(C)S[C@@H]2[C@H](NC(=O)[C@H](N)c3ccccc3)C(=O)N2[C@H]1C(=O)O
Activity [4]: inactive

CCCCN(CCCC)CCCNc1nc(NCC2CCCCC2)nc(NC23CC4CC(CC(C4)C2)C3)n1
IC50 (Bacillus subtilis): 5.5 µM

NCCNc1nc(NC2CCCCCC2)nc(NC23CC4CC(CC(C4)C2)C3)n1
IC50 (Bacillus subtilis): 5.9 µM

CCCCN(CCCC)CCCNc1nc(NCCc2ccc(OC)cc2)nc(NC23CC4CC(CC(C4)C2)C3)n1
hemolysis at 100 µM [3]: < 10%

CCCCN(CCCC)CCCNc1nc(NC2CC3CCC2C3)nc(NC23CC4CC(CC(C4)C2)C3)n1 (centres undefined)
IC50 (Bacillus subtilis): 7.6 µM

CCN(CC)CCCNc1nc(NC2CCCCCC2)nc(NC23CC4CC(CC(C4)C2)C3)n1
hemolysis at 100 µM [3]: < 10%

CCCCN(CCCC)CCCNc1nc(NCCCN(CCCC)CCCC)nc(NC23CC4CC(CC(C4)C2)C3)n1
hemolysis at 100 µM [3]: < 10%

CCCCN(CCCC)CCCNc1nc(NC2CCCCCC2)nc(NC23CC4CC(CC(C4)C2)C3)n1
IC50 (Acinetobacter baumannii): 53 µM | IC50 (Staphylococcus aureus): 68 µM | IC50 (Escherichia coli): 620 µM | IC50 (Bacillus subtilis): 2.5 µM | HC50 [1]: > 3.5 mM | hemolysis at 100 µM [3]: < 10% | IC50 (Bacillus anthracis): 41 µM

CN(C)CCCNc1nc(NC2CCCCCC2)nc(NC23CC4CC(CC(C4)C2)C3)n1
IC50 (Bacillus subtilis): 5.7 µM

CCCCN(CCCC)CCCNc1nc(NC2CCCC2)nc(NC23CC4CC(CC(C4)C2)C3)n1
IC50 (Bacillus subtilis): 4.6 µM

CN(C)CCNc1nc(NC2CCCCCC2)nc(NC23CC4CC(CC(C4)C2)C3)n1
IC50 (Bacillus subtilis): 7 µM

CCCCN(CCCC)CCCNc1nc(NC23CC4CC(CC(C4)C2)C3)nc(NC23CC4CC(CC(C4)C2)C3)n1
IC50 (Bacillus subtilis): 39 µM

CCCCN(CCCC)CCCNc1nc(NC2CCCCCCCCCCC2)nc(NC23CC4CC(CC(C4)C2)C3)n1
IC50 (Bacillus subtilis): 15.9 µM

CCCCN(CCCC)CCCNc1nc(NC23CC4CC(CC(C4)C2)C3)nc(N(CCC)CC2CC2)n1
IC50 (Bacillus subtilis): 5 µM

CCN(CC)CCNc1nc(NC2CCCCCC2)nc(NC23CC4CC(CC(C4)C2)C3)n1
IC50 (Bacillus subtilis): 5.6 µM

CCCCN(CCCC)CCCNc1nc(NC2CCCCCCC2)nc(NC23CC4CC(CC(C4)C2)C3)n1
IC50 (Acinetobacter baumannii): 84 µM | IC50 (Staphylococcus aureus): 70 µM | IC50 (Escherichia coli): 550 µM | IC50 (Bacillus subtilis): 2 µM | HC50 [1]: > 3.5 mM | IC50 (Bacillus anthracis): 86 µM

CCN(CC)CCCNc1nc(NCc2ccc3c(c2)OCO3)nc(NC23CC4CC(CC(C4)C2)C3)n1
IC50 (Bacillus subtilis): 3.5 µM

CN(C)c1nc(NC2CCCCCC2)nc(NC23CC4CC(CC(C4)C2)C3)n1
Activity [5]: inactive | IC50 (Bacillus subtilis): > 40 µM

CCCCN(CCCC)CCCNc1nc(NC2CC2)nc(NC23CC4CC(CC(C4)C2)C3)n1
IC50 (Bacillus subtilis): 16.4 µM

CN1CCCC1CCNc1nc(NC2CCCCCC2)nc(NC23CC4CC(CC(C4)C2)C3)n1 (centres undefined)
IC50 (Bacillus subtilis): 5.9 µM

CCCCN(CCCC)CCCNc1nc(NCCCN2CCCC(C)C2)nc(NC23CC4CC(CC(C4)C2)C3)n1 (centres undefined)
hemolysis at 100 µM [3]: < 10%
